{"source": "patent US9815850B2", "about": "“Compounds, compositions and methods” (Denali Therapeutics Inc., priority 2016, dated 2017)", "data": [{"molecular_target": "GST-hRIPK1 (8-327) (Homo sapiens (Human), UniProt Q13546)", "sequence (Q13546 8-327)": "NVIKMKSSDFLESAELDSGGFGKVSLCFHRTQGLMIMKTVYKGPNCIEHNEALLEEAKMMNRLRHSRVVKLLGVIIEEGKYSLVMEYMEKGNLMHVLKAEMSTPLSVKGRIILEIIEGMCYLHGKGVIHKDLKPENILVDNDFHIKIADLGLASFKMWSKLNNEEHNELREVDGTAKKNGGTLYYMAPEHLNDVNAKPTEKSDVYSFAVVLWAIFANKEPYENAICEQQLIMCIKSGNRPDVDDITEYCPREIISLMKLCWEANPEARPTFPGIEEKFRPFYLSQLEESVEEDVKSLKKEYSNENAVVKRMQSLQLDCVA", "experiment": "Fluorescent Polarization Binding (FP Binding) assay", "details": "10 nM GST-hRIPK1 (8-327), 5 nM fluorescent labeled ligand; read-out: FP IC50", "description": "Fluorescent Polarization Binding (FP Binding) assay (Berger S. B. et al. […] Maki J. L. et al. […] Test Compounds were serially diluted in DMSO at 100 fold final concentrations in the assay (1% DMSO final). […] For negative control the enzyme addition was replaced by assay buffer only. After addition of 5 μL of fluorescent labeled ligand at twice the final concentrations in assay buffer, the plate was incubated at RT for 30 min.", "units": {"IC50": "µM"}, "values": [{"smiles": "CN1C(=O)[C@@H](NC(=O)c2cc(C3(c4ccccc4)CC3)[nH]n2)COc2ccccc21", "note": "[Example 72, (S)—N-(5-methyl-4-oxo-2,3,4,5-tetrahydrobenzo[b][1,4]oxazepin-3-yl)-5-(1-phenylcyclopropyl)-1H-pyrazole-3-carboxamide]", "IC50": "0.0001 to 1"}, {"smiles": "CN1C(=O)[C@@H](NC(=O)c2cc(C3(c4ccccc4)CC3)[nH]n2)COc2cccnc21", "note": "[Example 73, (S)—N-(5-methyl-4-oxo-2,3,4,5-tetrahydropyrido[3,2-b][1,4]oxazepin-3-yl)-5-(1-phenylcyclopropyl)-1H-pyrazole-3-carboxamide]", "IC50": "0.0001 to 1"}, {"smiles": "CN1C(=O)[C@@H](NC(=O)c2nn(Cc3ccccn3)cc2F)COc2cccnc21", "note": "[Example 74, (S)-4-fluoro-N-(5-methyl-4-oxo-2,3,4,5-tetrahydropyrido[3,2-b][1,4]oxazepin-3-yl)-1-(pyridin-2-ylmethyl)-1H-pyrazole-3-carboxamide]", "IC50": "0.0001 to 1"}, {"smiles": "CN1C(=O)[C@H](NC(=O)c2nnc(Cc3ccccc3)[nH]2)[C@@H]2C[C@@H]2c2cccnc21", "note": "[Example 75B, 5-benzyl-N-((1aR,2R,8bS)-4-methyl-3-oxo-1,1a,2,3,4,8b-hexahydrocyclopropa[d]pyrido[2,3-b]azepin-2-yl)-4H-1,2,4-triazole-3-carboxamide]", "IC50": "> 3"}, {"smiles": "CN1C(=O)[C@@H](NC(=O)c2nn(Cc3ccccc3)cc2F)COc2cccnc21", "note": "[Example 76, (S)-1-benzyl-4-fluoro-N-(5-methyl-4-oxo-2,3,4,5-tetrahydropyrido[3,2-b][1,4]oxazepin-3-yl)-1H-pyrazole-3-carboxamide]", "IC50": "0.0001 to 1"}, {"smiles": "CN1C(=O)[C@@H](NC(=O)c2ncc(C3(c4ccccc4)CC3)[nH]2)COc2ccccc21", "note": "[Example 78, (S)—N-(5-methyl-4-oxo-2,3,4,5-tetrahydrobenzo[b][1,4]oxazepin-3-yl)-5-(1-phenylcyclopropyl)-1H-imidazole-2-carboxamide]", "IC50": "0.0001 to 1"}, {"smiles": "CN1C(=O)[C@@H](NC(=O)c2nc3cccc(-c4ccccc4F)c3s2)COc2ccccc21", "note": "[Example 79, (S)-7-(2-fluorophenyl)-N-(5-methyl-4-oxo-2,3,4,5-tetrahydrobenzo[b][1,4]oxazepin-3-yl)benzo[d]thiazole-2-carboxamide]", "IC50": "0.0001 to 1"}, {"smiles": "CN1C(=O)[C@@H](NC(=O)c2cc(Cc3ccccc3)[nH]n2)[C@H]2C[C@H]2c2cccnc21", "note": "[Example 80A, 5-benzyl-N-((1aS,2S,8bR)-4-methyl-3-oxo-1,1a,2,3,4,8b-hexahydrocyclopropa[d]pyrido[2,3-b]azepin-2-yl)-1H-pyrazole-3-carboxamide]", "IC50": "0.0001 to 1"}, {"smiles": "CN1C(=O)[C@H](NC(=O)c2cc(Cc3ccccc3)[nH]n2)[C@@H]2C[C@@H]2c2cccnc21", "note": "[Example 80B, 5-benzyl-N-((1aR,2R,8bS)-4-methyl-3-oxo-1,1a,2,3,4,8b-hexahydrocyclopropa[d]pyrido[2,3-b]azepin-2-yl)-1H-pyrazole-3-carboxamide]", "IC50": "> 3"}, {"smiles": "CN1C(=O)[C@@H](NC(=O)c2cc(Cc3ccccc3)on2)[C@H]2C[C@H]2c2cccnc21", "note": "[Example 81A, 5-benzyl-N-((1aS,2S,8bR)-4-methyl-3-oxo-1,1a,2,3,4,8b-hexahydrocyclopropa[d]pyrido[2,3-b]azepin-2-yl)isoxazole-3-carboxamide]", "IC50": "0.0001 to 1"}, {"smiles": "CN1C(=O)[C@H](NC(=O)c2cc(Cc3ccccc3)on2)[C@@H]2C[C@@H]2c2cccnc21", "note": "[Example 81B, 5-benzyl-N-((1aR,2R,8bS)-4-methyl-3-oxo-1,1a,2,3,4,8b-hexahydrocyclopropa[d]pyrido[2,3-b]azepin-2-yl)isoxazole-3-carboxamide]", "IC50": "> 3"}, {"smiles": "CN1C(=O)[C@@H](NC(=O)c2nn(Cc3ccccc3)cc2F)[C@H]2C[C@H]2c2cccnc21", "note": "[Example 82A, 1-benzyl-4-fluoro-N-((1aS,2S,8bR)-4-methyl-3-oxo-1,1a,2,3,4,8b-hexahydrocyclopropa[d]pyrido[2,3-b]azepin-2-yl)-1H-pyrazole-3-carboxamide]", "IC50": "0.0001 to 1"}, {"smiles": "CN1C(=O)[C@H](NC(=O)c2nn(Cc3ccccc3)cc2F)[C@@H]2C[C@@H]2c2cccnc21", "note": "[Example 82B, 1-benzyl-4-fluoro-N-((1aR,2R,8bS)-4-methyl-3-oxo-1,1a,2,3,4,8b-hexahydrocyclopropa[d]pyrido[2,3-b]azepin-2-yl)-1H-pyrazole-3-carboxamide]", "IC50": "> 3"}, {"smiles": "O=C(N[C@H]1C(=O)Nc2c(F)cc(F)cc2[C@H]2C[C@H]21)c1nnc(Cc2ccccc2)[nH]1", "note": "[Example 83B, 5-benzyl-N-((1aR,2R,8bS)-5,7-difluoro-3-oxo-1,1a,2,3,4,8b-hexahydrobenzo[b]cyclopropa[d]azepin-2-yl)-4H-1,2,4-triazole-3-carboxamide]", "IC50": "1 to 10"}, {"smiles": "CN1C(=O)[C@@H](NC(=O)c2nc3cccc(-c4ccccc4)c3s2)COc2ccccc21", "note": "[Example 84, (S)—N-(5-methyl-4-oxo-2,3,4,5-tetrahydrobenzo[b][1,4]oxazepin-3-yl)-7-phenylbenzo[d]thiazole-2-carboxamide]", "IC50": "0.0001 to 1"}, {"smiles": "CN1C(=O)[C@@H](NC(=O)c2nnc(Cc3ccccc3)s2)COc2cccnc21", "note": "[Example 85, (S)-5-benzyl-N-(5-methyl-4-oxo-2,3,4,5-tetrahydropyrido[3,2-b][1,4]oxazepin-3-yl)-1,3,4-thiadiazole-2-carboxamide]", "IC50": "0.0001 to 1"}, {"smiles": "CN1C(=O)[C@@H](NC(=O)c2ncc(Cc3ccccc3)s2)COc2cccnc21", "note": "[Example 86, (S)-5-benzyl-N-(5-methyl-4-oxo-2,3,4,5-tetrahydropyrido[3,2-b][1,4]oxazepin-3-yl)thiazole-2-carboxamide]", "IC50": "0.0001 to 1"}, {"smiles": "CN1C(=O)[C@@H](NC(=O)c2cn(C3(c4ccccc4)CC3)nn2)COc2ccccc21", "note": "[Example 87, (S)—N-(5-methyl-4-oxo-2,3,4,5-tetrahydrobenzo[b][1,4]oxazepin-3-yl)-1-(1-phenylcyclopropyl)-1H-1,2,3-triazole-4-carboxamide]", "IC50": "0.0001 to 1"}, {"smiles": "CN1C(=O)[C@@H](NC(=O)c2cnc(C3(c4ccccc4)CC3)[nH]2)COc2ccccc21", "note": "[Example 88, (S)—N-(5-methyl-4-oxo-2,3,4,5-tetrahydrobenzo[b][1,4]oxazepin-3-yl)-2-(1-phenylcyclopropyl)-1H-imidazole-5-carboxamide]", "IC50": "> 3"}, {"smiles": "O=C(N[C@H]1C(=O)Nc2c(F)cc(F)cc2[C@H]2C[C@H]21)c1nnc(Cc2ccccc2)o1", "note": "[Example 89A, 5-benzyl-N-((1aR,2R,8bS)-5,7-difluoro-3-oxo-1,1a,2,3,4,8b-hexahydrobenzo[b]cyclopropa[d]azepin-2-yl)-1,3,4-oxadiazole-2-carboxamide]", "IC50": "1 to 10"}, {"smiles": "O=C(N[C@@H]1C(=O)Nc2c(F)cc(F)cc2[C@@H]2C[C@H]12)c1nnc(Cc2ccccc2)o1", "note": "[Example 89B, 5-benzyl-N-((1aS,2S,8bR)-5,7-difluoro-3-oxo-1,1a,2,3,4,8b-hexahydrobenzo[b]cyclopropa[d]azepin-2-yl)-1,3,4-oxadiazole-2-carboxamide]", "IC50": "0.0001 to 1"}, {"smiles": "O=C(N[C@H]1C(=O)Nc2c(F)cc(F)cc2[C@H]2C[C@H]21)c1cn(Cc2ccccc2)nn1", "note": "[Example 90A, 1-benzyl-N-((1aR,2R,8bS)-5,7-difluoro-3-oxo-1,1a,2,3,4,8b-hexahydrobenzo[b]cyclopropa[d]azepin-2-yl)-1H-1,2,3-triazole-4-carboxamide]", "IC50": "1 to 10"}, {"smiles": "O=C(N[C@@H]1C(=O)Nc2c(F)cc(F)cc2[C@@H]2C[C@H]12)c1cn(Cc2ccccc2)nn1", "note": "[Example 90B, 1-benzyl-N-((1aS,2S,8bR)-5,7-difluoro-3-oxo-1,1a,2,3,4,8b-hexahydrobenzo[b]cyclopropa[d]azepin-2-yl)-1H-1,2,3-triazole-4-carboxamide]", "IC50": "0.0001 to 1"}, {"smiles": "O=C(N[C@H]1COc2cccnc2NC1=O)c1cc(C2(c3ccccc3)CC2)[nH]n1", "note": "[Example 91, (S)—N-(4-oxo-2,3,4,5-tetrahydropyrido[3,2-b][1,4]oxazepin-3-yl)-5-(1-phenylcyclopropyl)-1H-pyrazole-3-carboxamide]", "IC50": "0.0001 to 1"}, {"smiles": "[2H]C([2H])([2H])N1C(=O)[C@@H](NC(=O)c2cc(C3(n4nccn4)CC3)on2)CCc2cccnc21", "note": "[Example 207]", "IC50": "> 3"}, {"smiles": "Cc1nc(C(=O)N[C@@H]2C(=O)N(C)c3nccnc3[C@@H]3C[C@H]23)cn1Cc1ccccc1", "note": "[Example 208]", "IC50": "0.0001 to 1"}, {"smiles": "CN1C(=O)[C@@H](NC(=O)c2nn(Cc3cocn3)cc2F)COc2cccnc21", "note": "[Example 209, (S)-4-fluoro-N-(5-methyl-4-oxo-2,3,4,5-tetrahydropyrido[3,2-b][1,4]oxazepin-3-yl)-1-(oxazol-4-ylmethyl)-1H-pyrazole-3-carboxamide]", "IC50": "0.0001 to 1"}, {"smiles": "CN1C(=O)[C@@H](NC(=O)c2ncc(Cc3ccccn3)s2)COc2cccnc21", "note": "[Example 213, (S)—N-(5-methyl-4-oxo-2,3,4,5-tetrahydropyrido[3,2-b][1,4]oxazepin-3-yl)-5-(pyridin-2-ylmethyl)thiazole-2-carboxamide]", "IC50": "0.0001 to 1"}, {"smiles": "CN1C(=O)[C@@H](NC(=O)c2nn(Cc3ccc(F)cn3)cc2F)COc2ccccc21", "note": "[Example 214, (S)-4-fluoro-1-((5-fluoropyridin-2-yl)methyl)-N-(5-methyl-4-oxo-2,3,4,5-tetrahydrobenzo[b][1,4]oxazepin-3-yl)-1H-pyrazole-3-carboxamide]", "IC50": "0.0001 to 1"}, {"smiles": "CN1C(=O)[C@@H](NC(=O)c2noc(Cc3ccccc3)n2)COc2cccnc21", "note": "[Example 215, (S)-5-benzyl-N-(5-methyl-4-oxo-2,3,4,5-tetrahydropyrido[3,2-b][1,4]oxazepin-3-yl)-1,2,4-oxadiazole-3-carboxamide]", "IC50": "0.0001 to 1"}, {"smiles": "CN1C(=O)[C@@H](NC(=O)c2nn(Cc3ccc(Cl)cn3)cc2F)COc2ccccc21", "note": "[Example 216, (S)-1-((5-chloropyridin-2-yl)methyl)-4-fluoro-N-(5-methyl-4-oxo-2,3,4,5-tetrahydrobenzo[b][1,4]oxazepin-3-yl)-1H-pyrazole-3-carboxamide]", "IC50": "0.0001 to 1"}]}]}
